From patent US11434212B2, “Bicyclic compound as a caspase inhibitor” (CHIA TAI TIANQING PHARMACEUTICAL GROUP CO., LTD., priority 2017, dated 2022) come the findings set out here.

Entries after “also recorded” stand apart in the source; their conditions may differ.

In series [1] the test system is CCl4-induced chronic liver fibrosis model. Description: Pharmacodynamic study in CCl4-induced chronic liver fibrosis model. Format: in vivo, male C57BL/6 mice. Details: Total score of liver injury / Ballooning change score: scale not given here. The following applies: for Ballooning change score / Inflammatory cell infiltration / Percentage of liver fibrosis / Total score of liver injury: p.o., bid, 28 days, mean ± sem; for Effect on CCl4-induced liver tissue damage (in words) / Inhibitory effect on liver fibrosis (in words): different doses, oral twice a day for 28 days, vs model group. On the procedure:
The therapeutic effects of the test compound IDN-6556 and the compound of Example 1 in the CCl4-induced chronic liver fibrosis model of male C57BL/6 mice were tested.
Male C57BL/6 mice were randomly divided into 7 groups: pseudo model group (group 1), model group (group 2, solvent p.o., q.d), IDN-6556 (group 3, 3 mg/kg, p.o., bid), IDN-6556 (group 4, 10 mg/kg, p.o., bid), Example 1 (group 5, 3 mg/kg, p.o., bid), Example 1 (group 6, 10 mg/kg, p.o., bid)), Example 1 (group 7, 20 mg/kg, p.o., bid). CCl4 was formulated into a CCl4-olive oil mixed solution according to the doses by using olive oil, modeling is performed by orally administration three times a week for 4 weeks; and the pseudo model group was orally administered with the same volume of olive oil alone. Compounds were orally administrated from the day of modeling, twice a day for 28 days, while the pseudo model group and the model group were orally administered with an equal volume of drug solvent. On the next day after the last administration, the animals were fasted for 6 hours, followed by euthanizing, and the livers were collected. Liver tissues were fixed in 10% formalin solution for histopathological analysis.

Series [2] can be described thus: Mouse pharmacokinetic study in plasma and liver after oral administration. The following applies: for concentration at 0.5 h / concentration at 2 h / concentration at 6 h: male, C57BL/6J, plasma, read-out: Plasma drug concentration; for liver drug-time curve (area) / plasma drug-time curve (area): 0.5-6 h samples. Format: in vivo, male C57BL/6J mice. An excerpt: This experiment intended to investigate the pharmacokinetics in plasma and liver of male C57BL/6J mice after oral administration of the compounds.
Mice were randomly divided into three groups (3 male mice per group). The compound was formulated into the specified formulation. Oral formulations may be clear or uniform suspensions. Animals were intragastrically administered with a given dose of the preparation, respectively.
Whole blood samples were collected from animals through jugular vein puncture at 3 time points of 30 minutes, 2 hours, and 6 hours after administration, approximately 25 μL per sample; while the liver was collected at each time point.
The plasma samples were added to centrifuge tubes containing anticoagulant, and centrifuged at 4° C., 3000 g for 15 min, and the supernatant plasma was taken and quickly frozen on dry ice and then stored in a refrigerator at −70±10° C. until LC-MS/MS analysis was performed.
The blood outside the liver was sopped up with absorbent paper, and the weight of the liver was weighed, and then placed in liquid nitrogen to freeze. MeOH/15 mM PBS (1:2) at a volume-weight ratio of 1:5 was added thereto, and then the homogenization was performed at 14000 rpm for 2 minutes. It was then stored in a refrigerator at −70±10° C. until LC-MS/MS analysis was performed.
The plasma drug concentration data for the compounds were processed with the non-compartment model using WinNonlin™ Version 6.3.0 (Pharsight, Mountain View, Calif.) pharmacokinetic software. The maximal concentration (Cmax), maximal concentration time (Tmax) and quantitative end time were directly obtained from the plasma concentration-time chart.
The following pharmacokinetic parameters were calculated by using logarithmic linear trapezoidal method: elimination phase half-life (T1/2); the in vivo mean residence time of the drug from point 0 to the last time point (MRT0-last); the in vivo mean residence time of the drug from point 0 to infinite time (MRT0-ifn); the area under time-plasma concentration curve from point 0 to the last time point (AUC0-last); the area under time-plasma concentration curve from point 0 to infinite time (AUC0-inf).
For individual plasma concentrations less than BQL, the one occurred before Tmax was calculated as 0, and the one occurred after Tmax was directly excluded. All parameters and ratios were reported in the forms of three significant digits.
The pharmacokinetic parameters of this experiment were calculated according to the theoretical blood collection times and the theoretical administration concentrations in the protocol. The deviations between the actual administration concentrations and the theoretical concentrations were within the range of ±20%. The deviations between the actual blood collection times and the theoretical blood collection times were in conformity with the relevant SOP (the points within 1 hour after administration were within the range of ±1 min, and the others were within 5% of the theoretical time).

The target in series [3] is T1, Caspase-1 (Homo sapiens, UniProt P29466).
T1 construct: purchased BioVision K151-100
T1 sequence (P29466 120-297 limits assumed): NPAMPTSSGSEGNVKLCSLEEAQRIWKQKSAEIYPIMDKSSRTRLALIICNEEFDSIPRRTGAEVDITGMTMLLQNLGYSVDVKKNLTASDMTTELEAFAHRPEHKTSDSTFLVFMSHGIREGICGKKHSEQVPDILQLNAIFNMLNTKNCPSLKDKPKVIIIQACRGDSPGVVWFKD
T1 sequence (P29466 317-404 limits assumed): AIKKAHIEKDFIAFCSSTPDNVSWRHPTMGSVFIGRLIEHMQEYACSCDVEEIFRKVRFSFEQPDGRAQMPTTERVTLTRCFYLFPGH
Description: In vitro inhibitory activity on Caspase-1 (BioVision Caspase-1 Inhibitor Screening Kit). It is filed as biochemical. The following applies: fluorogenic substrate 50 μM; test concentrations 1000 nM to 0.32 nM. How it is done:
(§1) Caspase Inhibitor Screening Kit for BioVision was used in this experiment to test the inhibitory activity of the test compounds on Caspase.
Caspase-1 Inhibitor Screening Kit (BioVision #K151-100)
(§2) Note: Each caspase enzymatic experiment uses the reagents in corresponding kit thereof. Each enzyme was dissolved in 550 μl of the corresponding 2× reaction buffer, sub-packed and stored at −80° C., respectively.
(§3) 1) The compound was diluted to a 200*test concentration with DMSO via the multiple dilution, then to a 2*test concentration with ddH2O, and added to a 384-well experimental plate at 12.5 μl per well. Test compounds and control compounds were tested at 6 concentration points, test concentrations ranging from 1000 nM to 0.32 nM. The ddH2O containing 1% DMSO was added to the 0% inhibition control well, and a high concentration of the control compound was added to the 100% inhibition control well (final concentration: 5 μM).
(§4) 2) 2× reaction buffer containing 10 mM DTT was prepared. The enzyme caspase stock solution was diluted 5-fold with 2× reaction buffer containing 10 mM DTT and added to a 384-well experimental plate at 6.25 μl per well. After being mixed, the enzyme and compounds were incubated at 37° C. for 30 minutes.
(§5) 3) The fluorogenic substrate of the enzyme caspase was diluted 5-fold with 2× reaction buffer containing 10 mM DTT, and then added to a 384-well experimental plate at 6.25 μl per well. The total reaction volume was 25 μl, the final concentration of the substrate was 50 μM, and the final concentration of DMSO was 0.5%. After the substrate was added, the 384-well experimental plate was incubated at 37° C. for 30 minutes.
(§6) 4) The fluorescence intensity (excitation light wavelength was 400 nm, emission light wavelength was 505 nm) was measured by using a multi-function microplate reader. Fluorescence intensity was used to calculate the inhibitory effect of the compounds on Caspase. GraphPad Prism software was used for fitting compound inhibition curves and calculating IC50 values.

Series [4] addresses T2, Caspase-3 (Homo sapiens, UniProt P42574).
T2 construct: purchased BioVision K153-100
T2 sequence (P42574 29-175 limits assumed): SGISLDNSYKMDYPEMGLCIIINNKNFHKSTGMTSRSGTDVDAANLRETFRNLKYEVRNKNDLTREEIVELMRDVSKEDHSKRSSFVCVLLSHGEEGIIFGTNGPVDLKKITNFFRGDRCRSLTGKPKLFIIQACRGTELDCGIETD
T2 sequence (P42574 176-277 limits assumed): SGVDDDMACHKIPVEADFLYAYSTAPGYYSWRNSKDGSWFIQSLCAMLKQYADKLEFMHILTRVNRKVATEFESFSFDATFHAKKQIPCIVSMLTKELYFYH
Description: In vitro inhibitory activity on Caspase-3 (BioVision Caspase-3 Inhibitor Screening Kit). It is filed as biochemical. To be noted: fluorogenic substrate 50 μM; test concentrations 1000 nM to 0.32 nM. On the procedure:
as §1
Caspase-3 Inhibitor Screening Kit (BioVision #K153-100)
as §2, §3, §4, §5, §6

Series [5] has as its target T3, Caspase-8 (Homo sapiens, UniProt Q14790).
T3 construct: purchased BioVision K158-100
Description: In vitro inhibitory activity on Caspase-8 (BioVision Caspase-8 Inhibitor Screening Kit). It is filed as biochemical. To be noted: fluorogenic substrate 50 μM; test concentrations 1000 nM to 0.32 nM. On the procedure: as §1
Caspase-8 Inhibitor Screening Kit (BioVision #K158-100)
as §2, §3, §4, §5, §6

The mark [6] stands for this setting: 0.5 h after oral (intragastric) administration.
Where [7] appears, read: 2 h after oral (intragastric) administration.
Setting [8] is: 6 h after oral (intragastric) administration.

As usually defined, the IC50 is the midpoint of a concentration-inhibition curve.

T3 sequence (Q14790 217-374 limits assumed): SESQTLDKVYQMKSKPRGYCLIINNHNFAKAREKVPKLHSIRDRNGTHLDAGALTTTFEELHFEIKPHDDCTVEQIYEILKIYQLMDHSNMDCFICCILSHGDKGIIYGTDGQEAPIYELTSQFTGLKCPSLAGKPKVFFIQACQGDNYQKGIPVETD
T3 sequence (Q14790 385-479 limits assumed): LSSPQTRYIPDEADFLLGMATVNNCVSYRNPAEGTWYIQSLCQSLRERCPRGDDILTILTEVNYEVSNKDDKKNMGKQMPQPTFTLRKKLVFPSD

In the case of `C[C@H](NC(=O)c1cc(-c2ccccc2Cl)on1)C(=O)N[C@@H](CC(=O)O)C(=O)COc1c(F)c(F)cc(F)c1F` [Example 1, (S)-3-((S)-2-(5-(2-chlorophenyl)isoxazol-3-carboxamido)propionamido)-4-oxo-5-(2,3,5,6-tetrafluorophenoxy)pentanoic Acid], in series [1] (3 mg/kg), the Ballooning change score worked out at 0.00 ± 0.00, the Inflammatory cell infiltration is 1.13 ± 0.06, the “Percentage of liver fibrosis” value was 1.61 ± 0.05^$$ % and the “Total score of liver injury” value stood at 1.13 ± 0.06. In series [1] (10 mg/kg), the Ballooning change score was found to be 0.00 ± 0.00, the Inflammatory cell infiltration stood at 1.15 ± 0.07, the “Percentage of liver fibrosis” value is 1.62 ± 0.07^$ % and the “Total score of liver injury” value amounted to 1.20 ± 0.07. Moreover, in series [1] (20 mg/kg), the Ballooning change score came to 0.00 ± 0.00, the Inflammatory cell infiltration stood at 1.10 ± 0.04, the “Percentage of liver fibrosis” value is 1.69 ± 0.10% and the “Total score of liver injury” value was 1.12 ± 0.04. Also, in series [1], the “Effect on CCl4-induced liver tissue damage (in words)” value is listed as “significantly improve; also recorded: significantly inhibit” and the “Inhibitory effect on liver fibrosis (in words)” value is “significantly inhibited; also recorded: significant inhibitory effect”. For the same compound, in series [2] (setting [6]), the Liver drug concentration is listed as 46440 nmol/kg and the concentration at 0.5 h amounted to 2520 nM. Besides, in series [2] (setting [7]), the Liver drug concentration is given as 3126 nmol/kg and the concentration at 2 h was 112 nM. In series [2] (setting [8]), the Liver drug concentration was determined as 3252 nmol/kg and the concentration at 6 h was 12.8 nM. Moreover, in series [2] (oral administration), the “Liver exposure compared to IDN-6556” value is listed as “about 5 times”, the “liver drug-time curve (area)” value came out at 48.442 µM·h and the “plasma drug-time curve (area)” value worked out at 1.795 µM·h.
For `C[C@H](NC(=O)c1c[nH]c(-c2ccccc2)n1)C(=O)N[C@@H](CC(=O)O)C(=O)COc1c(F)c(F)cc(F)c1F` [Example 3], the IC50 in series [3] came to 4.8 nM; in series [4], 24 nM; in series [5], 25.9 nM.
In the case of `C[C@H](NC(=O)c1cc(-c2ccccc2F)n[nH]1)C(=O)N[C@@H](CC(=O)O)C(=O)COc1c(F)c(F)cc(F)c1F` [Example 5], the IC50 came out at 3.9 nM in series [3], 13.7 nM in series [4] and 16.8 nM in series [5].
For `C[C@H](NC(=O)c1cc(-c2ccccc2)n[nH]1)C(=O)N[C@@H](CC(=O)O)C(=O)COc1c(F)c(F)cc(F)c1F` [Example 4], in that order: 4.1 nM, 11.4 nM and 11.7 nM.
As for `C[C@H](NC(=O)C(=O)Nc1ccccc1C(C)(C)C)C(=O)N[C@@H](CC(=O)O)C(=O)COc1c(F)c(F)cc(F)c1F` [IDN-6556, reference compound], in series [1] (3 mg/kg), the Ballooning change score is given as 0.05 ± 0.04, the Inflammatory cell infiltration worked out at 1.55 ± 0.06, the “Percentage of liver fibrosis” value amounted to 1.84 ± 0.07% and the “Total score of liver injury” value is on record as 1.60 ± 0.07. For the same compound, in series [1] (10 mg/kg), the Ballooning change score came to 0.08 ± 0.04, the “Percentage of liver fibrosis” value stood at 1.86 ± 0.12% and the “Total score of liver injury” value is 1.43 ± 0.12. For the same compound, in series [1], the “Effect on CCl4-induced liver tissue damage (in words)” value is recorded as “significantly inhibit” and the “Inhibitory effect on liver fibrosis (in words)” value is “no clear inhibitory effect”. In series [1] (listed as IND-6556), the “Effect on CCl4-induced liver tissue damage (in words)” value is “significantly improve”. In addition, in series [2] (setting [6]), the Liver drug concentration was found to be 8600 nmol/kg and the concentration at 0.5 h worked out at 435 nM. Further, in series [2] (setting [7]), the Liver drug concentration amounted to 930 nmol/kg and the concentration at 2 h is 10.9 nM. Also, in series [2] (setting [8]), the Liver drug concentration is on record as 230 nmol/kg and the concentration at 6 h was found to be 5.79 nM. Also, in series [2] (oral administration), the “liver drug-time curve (area)” value is 9.347 µM·h and the “plasma drug-time curve (area)” value was found to be 0.314 µM·h.
Consider `C[C@H](NC(=O)c1ncc(-c2ccccc2)s1)C(=O)N[C@@H](CC(=O)O)C(=O)COc1c(F)c(F)cc(F)c1F` [Example 2], for which the IC50 in series [3] stood at 5.3 nM; in series [4] it was 29.6 nM; in series [5], 24.6 nM.
For `C[C@H](NC(=O)c1cc(-c2cccc(Cl)c2)on1)C(=O)N[C@@H](CC(=O)O)C(=O)COc1c(F)c(F)cc(F)c1F` [Example 10], in that order: 6.6 nM, 22 nM and 16.3 nM.
For `C[C@H](NC(=O)c1coc(-c2ccccc2)n1)C(=O)N[C@@H](CC(=O)O)C(=O)COc1c(F)c(F)cc(F)c1F` [Example 7], in that order: 6.9 nM, 20.2 nM and 30 nM.
Taken in the same sequence, the figures for `C[C@H](NC(=O)c1cc(-c2ccccc2)on1)C(=O)N[C@@H](CC(=O)O)C(=O)COc1c(F)c(F)cc(F)c1F` [Example 9] were 14.2 nM, 44.4 nM and 23.2 nM.
